Data on four molecules can be found in patent US7273863B1, “Benzophenones as inhibitors of reverse transcriptase” (SmithKline Beecham Corporation, priority 1999, dated 2007).

Assay [1] concerns isogenic HIV-1 RT mutant virus V108I. The assay is described as follows: HeLa cell assay (HIV-LTR β-galactosidase reporter). Type of assay: cell-based. The following applies: Human immunodeficiency virus 1, HeLa, read-out: IC50 (nM) Range. As for the experimental part: (§1) The HeLa cell assay was performed according to a modification of Kimpton J. and Emerman M., Detection of replication-competent and pseudotyped human immunodeficiency virus with a sensitive cell line on the basis of activation of an integrated β-galactosidase gene, J. Virol. 66:2232-2239 (1992), in which HIV-1 infection is detected by the activation of an HIV-LTR driven β-galactosidase reporter that is integrated into the genome of a CD4^+ HeLa cell line. Quantitation of β-galactosidase is achieved by measuring the activation of a chemiluminescent substrate (Tropix). The concentration of each compound required to inhibit 50% (IC50) of the HIV-1 induced β-galactosidase signal, relative to untreated controls, was determined for each isogenic, recombinant virus.
(§2) HeLa-CD4-LTR-β-gal cells were obtained from the NIH AIDS Research and Reference Reagent Program. Cells were propagated in DMEM containing 10% fetal bovine serum, 0.2 mg/ml geneticin and 0.1 mg/ml hygromycin B. Cells were routinely split by trypsinization when confluency reached 80% (approximately every 2 to 3 days).
(§3) DNA encoding the HIV-1 reverse transcriptase was subcloned from a M13 phage into a general shuttle vector, pBCSK+, as a ˜1.65 kbp EcoRI/HindIII ended DNA fragment. The HIV DNA insert of the resulting plasmid, pRT2, was completely sequenced on both strands prior to use in site directed mutagenesis experiments. Specific amino acid replacements were made using Stratagene Quick Change reagents and mutagenic oligonucleotides from Oligos. Following mutagenesis, the entire mutant RT coding sequence was verified by sequencing both DNA strands.
(§4) Mutant HIV-1 strains were isolated by a modified Recombinant Virus Assay (Kellam P. and Larder B., Recombinant virus assay: a rapid, phenotypic assay for assessment of drug susceptibility of human immunodeficiency virus type 1 isolates, Antimicrobial Agents and Chemotherapy, 38:23-30, 1994). 1×10^7 Jurkat T-cells (maintained in RPMI containing 10% fetal bovine serum, split 1:5 every 5 to 6 days) were co-transfected with EcoRI/HindIII digested mutant RT plasmid and Bst EII-digested HIV-1HXB2ΔRT DNA in the presence of DMRIE-C transfection reagent (Gibco) according to supplier's recommended protocol. Each mutant RT coding sequence was crossed into the RT-deleted HIV-1 viral DNA backbone by in vivo homologous recombination. Transfected cell cultures were expanded and monitored until syncitia formation and CPE were extensive. Virus was harvested by clear spin of the culture supernatants and frozen at −80 C as primary stock. Recombinant progeny virus was sequenced in the RT region to confirm the mutant genotype. Virus stocks were further expanded by infection of Jurkat cells, harvested and stored as frozen aliquots. Stocks were titered in HeLa MAGI cells for assay.
(§5) The HIV-1HXB2 mutants were titered in the HeLa MAGI assay system to determine the relative light units (RLU) per ml, a measure of infectivity relevant for this assay system. Virus stocks were diluted in a 2-fold series into DMEM containing 10% fetal bovine serum plus 20 ug/ml DEAE-dextran and assayed as described in the Experimental Protocol section, below.
(§6) 96-well microtiter plate(s) (Costar #3598) were seeded with 3×10^3 HeLa-CD4-LTR-β-gal in 100 μl DMEM containing 10% fetal bovine serum. Plates were placed in a 37° C., 5% CO2 humidified incubator overnight. The following day, mutant virus stocks were thawed in a room temperature water bath and diluted into DMEM containing 10% fetal bovine serum and 20 μg/ml DEAE-dextran to achieve an input of 1500 to 2000 RLU/ml. All media was removed with an 8 channel manifold aspirator and 35 μl (50 to 70 total RLUs) of diluted virus was added to each well for virus adsorption. Plates were placed in a 37° C., 5% CO2 humidified incubator for 1.5 to 2 hours.
(§7) Compound titration plates were prepared at 1.35× final concentration during the virus adsorption period. […]

The test system of assay [2] is isogenic HIV-1 RT mutant virus L100I. The assay is described as follows: HeLa cell assay (HIV-LTR β-galactosidase reporter). The assay is classed as cell-based. As to conditions: Human immunodeficiency virus 1, HeLa, read-out: IC50 (nM) Range. As for the experimental part:
as §1, §2, §3, §4, §5, §6, §7

In assay [3] the test system is isogenic HIV-1 RT mutant virus P236L. The assay is described as follows: HeLa cell assay (HIV-LTR β-galactosidase reporter). As to conditions: Human immunodeficiency virus 1, HeLa, read-out: IC50 (nM) Range. The assay is classed as cell-based. As for the experimental part: as §1, §2, §3, §4, §5, §6, §7
For assay [4], the system named is isogenic HIV-1 RT mutant virus V108I/Y181C. Kind of assay: HeLa cell assay (HIV-LTR β-galactosidase reporter). Type of assay: cell-based. As to conditions: Human immunodeficiency virus 1, HeLa, read-out: IC50 (nM) Range. As for the experimental part: as §1, §2, §3, §4, §5, §6, §7
Assay [5] concerns isogenic HIV-1 RT mutant virus V106A/Y181C. Kind of assay: HeLa cell assay (HIV-LTR β-galactosidase reporter). The assay is classed as cell-based. As to conditions: Human immunodeficiency virus 1, HeLa, read-out: IC50 (nM) Range. As for the experimental part:
as §1, §2, §3, §4, §5, §6, §7

Assay [6] deals with isogenic HIV-1 RT mutant virus K103N/V108I. Kind of assay: HeLa cell assay (HIV-LTR β-galactosidase reporter). Type of assay: cell-based. The following applies: Human immunodeficiency virus 1, HeLa, read-out: IC50 (nM) Range. As for the experimental part:
as §1, §2, §3, §4, §5, §6, §7

For assay [7], the system named is isogenic HIV-1 RT mutant virus G190A. Kind of assay: HeLa cell assay (HIV-LTR β-galactosidase reporter). Type of assay: cell-based. As to conditions: Human immunodeficiency virus 1, HeLa, read-out: IC50 (nM) Range. As for the experimental part: as §1, §2, §3, §4, §5, §6, §7
For assay [8], the system named is isogenic HIV-1 RT mutant virus V106I. The assay is described as follows: HeLa cell assay (HIV-LTR β-galactosidase reporter). Type of assay: cell-based. The following applies: Human immunodeficiency virus 1, HeLa, read-out: IC50 (nM) Range. As for the experimental part: as §1, §2, §3, §4, §5, §6, §7
Assay [9] relates to isogenic HIV-1 RT mutant virus Y181C. The assay is described as follows: HeLa cell assay (HIV-LTR β-galactosidase reporter). Type of assay: cell-based. The following applies: Human immunodeficiency virus 1, HeLa, read-out: IC50 (nM) Range. As for the experimental part:
as §1, §2, §3, §4, §5, §6, §7

The subject of assay [10] is isogenic HIV-1 RT mutant virus K103N/G190A. Kind of assay: HeLa cell assay (HIV-LTR β-galactosidase reporter). The assay is classed as cell-based. The following applies: Human immunodeficiency virus 1, HeLa, read-out: IC50 (nM) Range. As for the experimental part: as §1, §2, §3, §4, §5, §6, §7
In assay [11] the test system is isogenic HIV-1 RT mutant virus K103N/P225H. The assay is described as follows: HeLa cell assay (HIV-LTR β-galactosidase reporter). Type of assay: cell-based. The following applies: Human immunodeficiency virus 1, HeLa, read-out: IC50 (nM) Range. As for the experimental part: as §1, §2, §3, §4, §5, §6, §7
The subject of assay [12] is isogenic HIV-1 RT mutant virus K103N. The assay is described as follows: HeLa cell assay (HIV-LTR β-galactosidase reporter). Type of assay: cell-based. The following applies: Human immunodeficiency virus 1, HeLa, read-out: IC50 (nM) Range. As for the experimental part: as §1, §2, §3, §4, §5, §6, §7
In assay [13] the test system is isogenic HIV-1 RT mutant virus K103N/Y181C. Kind of assay: HeLa cell assay (HIV-LTR β-galactosidase reporter). Type of assay: cell-based. The following applies: Human immunodeficiency virus 1, HeLa, read-out: IC50 (nM) Range. As for the experimental part:
as §1, §2, §3, §4, §5, §6, §7

The subject of assay [14] is isogenic HIV-1 RT mutant virus P225H. Kind of assay: HeLa cell assay (HIV-LTR β-galactosidase reporter). Type of assay: cell-based. The following applies: Human immunodeficiency virus 1, HeLa, read-out: IC50 (nM) Range. As for the experimental part:
as §1, §2, §3, §4, §5, §6, §7

Assay [15] deals with isogenic HIV-1 RT mutant virus V106I/Y181C. Kind of assay: HeLa cell assay (HIV-LTR β-galactosidase reporter). Type of assay: cell-based. As to conditions: Human immunodeficiency virus 1, HeLa, read-out: IC50 (nM) Range. As for the experimental part: as §1, §2, §3, §4, §5, §6, §7
The test system of a further assay is WTRVA. Kind of assay: HeLa cell assay (HIV-LTR β-galactosidase reporter). The assay is classed as cell-based, HIV-1. The following applies: Human immunodeficiency virus 1, Virus Type WTRVA, read-out: IC50 (nM) Range. As for the experimental part: as §1, §2, §3, §4, §5, §6, §7
In a further assay the test system is NEV-R. The assay is described as follows: MT4 cell assay, antiviral HIV activity (propidium iodide). Type of assay: cell-based. The following applies: Human immunodeficiency virus 1, MT4, read-out: IC50 (nM) Range.

Bounds are passed on as bounds.

Regarding `Cc1cc2nc[nH]c2cc1NC(=O)COc1ccc(Cl)cc1C(=O)c1cc(F)cc(C(F)(F)F)c1` [Compound 239], the half-inhibitory concentration (IC50) in assay [1] was below 10 nM; in assay [2], below 10 nM; in assay [3] it was below 10 nM; in assay [4], below 10 nM; in assay [5], 101 to 1000 nM; in [6], below 10 nM. The IC50 in assay [7] is below 10 nM; in assay [8], below 10 nM; in assay [9], below 10 nM; in assay [10], 11 to 100 nM; in assay [11], below 10 nM; in assay [12], below 10 nM. Besides, the IC50 was 11 to 100 nM in [13]; below 10 nM in assay [14]; below 10 nM in assay [15]; below 10 nM in the assay with WTRVA; below 10 nM with NEV-R.
As for `Cc1cc(C#N)cc(C(=O)c2cc(Cl)ccc2OCC(=O)Nc2ccc(S(N)(=O)=O)nc2C)c1` [Compound 503], the IC50 in assay [1], in assay [2], in assay [3], in assay [4], in assay [5] and in assay [6] was below 10 nM each time. Also, the IC50 in [7], in [8], in [9], in assay [10], in assay [11] and in assay [12] was below 10 nM each time. Moreover, the IC50 (in [13]; in assay [14]; in assay [15]; in the assay on WTRVA; in the assay on NEV-R) was below 10 nM in each case.
Turning to `Cc1cc(C#N)cc(C(=O)c2cc(Cl)ccc2OCC(=O)Nc2ccc(S(N)(=O)=O)cc2C)c1` [Compound 564], the IC50 in assay [2], in assay [3], in [4], in [5], in assay [6] and in [7] was below 10 nM in each case. The concentration for half-maximal inhibition (IC50) in [8], in assay [9], in [10], in assay [11], in assay [12] and in assay [13] was below 10 nM in each case. The IC50 (in [14]; in assay [15]; in the assay on WTRVA; in the assay on NEV-R) was below 10 nM each time.
As to `Cc1cc(S(N)(=O)=O)ccc1NC(=O)COc1ccc(Cl)cc1C(=O)c1cccc(C#N)c1` [Compound 448], the IC50 is below 10 nM in assay [1]; below 10 nM in assay [2]; 11 to 100 nM in assay [3]; below 10 nM in assay [4]; 11 to 100 nM in assay [5]; below 10 nM in assay [6]. For the same molecule, the IC50 in [7] is below 10 nM; in [8], below 10 nM; in assay [9] it was below 10 nM; in assay [10], 11 to 100 nM; in assay [11], below 10 nM; in assay [12], below 10 nM. Further, the IC50 in [13] was 11 to 100 nM; in [14] it was below 10 nM; in assay [15], 11 to 100 nM; with NEV-R, below 10 nM.
